From patent EP0547231B1, “PHOSPHOLIPASE A2 INHIBITOR” (SHIONOGI & CO., LTD., priority 1991, dated 1993)
Counter-ions that a name gives are not always drawn.

Molecular target: T1, PLA2 (phospholipase A2) (Rattus norvegicus, UniProt P14423)
T1 construct: from tissue; host or cells: rat platelets
T1 sequence (P14423 22-146): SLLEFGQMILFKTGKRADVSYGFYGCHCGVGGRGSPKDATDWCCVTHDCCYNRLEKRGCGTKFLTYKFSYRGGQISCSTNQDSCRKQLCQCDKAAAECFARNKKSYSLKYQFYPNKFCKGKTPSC
Test: Phospholipase A2 inhibitory activity (release of free fatty acid from 14C-labelled phosphatidylethanolamine)
Type: biochemical
Conditions: PLA2 from rat platelets; CaCl2 (3 mM) in Tris-buffer (0.1 M, pH 7.4); 37 °C for 20 minutes
Protocol: The compounds of the present invention were tested for their Phospholipase A2 inhibitory activity by the following procedure.
1-Palmitoyl-2-[1-^14C]-linoleoyl L-3-Phosphatidylethanolamine (Amersham, Inc., 59 mCi/mmol) were diluted with L-α-phosphatidylethanolamine (Sigma, Co., from […]) [2,000 dpm/nmol], and the dilution was sonicated. The resultant dilution was used as a substrate. The PLA2 (phospholipase A2) which was used in the test was from rat platelets. The PLA2 and the substrate preparation were added to a solution of CaCl2 (3 mM) in Tris-buffer (0.1 M, pH 7.4), and the mixture was allowed to react at 37 °C for 20 minutes. Then, the reaction was terminated by adding 1.25 ml of Dole's reagent to the reaction mixture and stirring immediately the resultant mixture. To the mixture was added 0.5 ml of distilled water and 0.8 ml of n-heptane, and the mixture was stirred, centrifuged, and the supernatant was taken into another tube. To this supernatant were added an additional 0.8 ml of n-heptane and silica gel, and the mixture was stirred, centrifuged, and the supernatant was taken into vials. Toluene cocktail was added to the vials. The amount of free fatty acid released by PLA2 was determined using a liquid scintillation counter.
Inhibitory activity (%) was estimated by the formula: [(DPM value at the addition of the inhibitor - DPM value without PLA2) / (DPM value with only PLA2 - DPM value without PLA2)] × 100.

Compound	IC50 [µM]
COc1c(C)c(OC)c(C(=O)O)c(C)c1Cc1c(C)c(C(=O)Oc2c(C)c(C)c(C(=O)Oc3c(C)c(C)c(C(=O)O)c(OC)c3C)c(OC)c2C)c(OC)c(C)c1OC [Compound 48]	3
COc1c(C)c(OCc2ccccc2)c(C)c(C)c1C(=O)O [Compound 8]	> 330
CCCCOC(=O)c1cc(Sc2ccc(OC)c(C(=O)Oc3c(C)c(C)c(C(=O)O)c(OC)c3C)c2)ccc1OC [Compound 59, n-Butyl 3-[3'-(4''-carboxy-3''-methoxy-2'',5'',6''-trimethylphenoxycarbonyl)-4'-methoxyphenyl]-thio-6-methoxybenzoate]	1.45
COc1c(C)c(OC(=O)c2c(C)c(C)c(OC(=O)c3cccc(C(=O)Oc4c(C)c(C)c(C(=O)Oc5c(C)c(C)c(C(=O)O)c(OC)c5C)c(OC)c4C)c3)c(C)c2OC)c(C)c(C)c1C(=O)O [Compound 52]	0.16
COc1c(C)c(OC(=O)c2c(C)c(C)c(OC(=O)c3cc(=O)cc(C(=O)Oc4c(C)c(C)c(C(=O)Oc5c(C)c(C)c(C(=O)O)c(OC)c5C)c(OC)c4C)o3)c(C)c2OC)c(C)c(C)c1C(=O)O [Compound 54]	0.88
COc1cc(OC)c(C(=O)Oc2c(C)c(C)c(C(=O)Oc3c(C)c(C)c(C(=O)O)c(OC)c3C)c(OC)c2C)cc1Oc1cc(C)c(OC)c(C(=O)Oc2c(C)c(C)c(C(=O)Oc3c(C)c(C)c(C(=O)O)c(OC)c3C)c(OC)c2C)c1 [Compound 56]	0.035
COc1c(C)c(OC)c(C(=O)Oc2c(C)c(C)c(C(=O)O)c(OC)c2C)c(C)c1Cc1c(C)c(C(=O)Oc2c(C)c(C)c(C(=O)O)c(OC)c2C)c(OC)c(C)c1OC [Compound 50]	4.6
COc1c(C)c(O)c(C)c(C)c1C(=O)O [Compound 9]	> 480
COc1c(C)c(OC)c(C(=O)Oc2c(C)c(C)c(C(=O)Oc3c(C)c(C)c(C(=O)O)c(OC)c3C)c(OC)c2C)c(C)c1Cc1c(C)c(C(=O)Oc2c(C)c(C)c(C(=O)Oc3c(C)c(C)c(C(=O)O)c(OC)c3C)c(OC)c2C)c(OC)c(C)c1OC [Compound 44, Bis[5-[4'-(4''-carboxy-3''-methoxy-2'',5'',6''-trimethylphenoxycarbonyl)-3'-methoxy-2',5',6',-trimethylphenoxycarbonyl]-2,4-dimethoxy-3,6-dimethylphenyl] methane]	0.13

Further lines, results first:

IC50 [µM]	Compound
0.34	COc1c(C)c(OC)c(C(=O)Oc2c(C)c(O)cc(C)c2C(=O)Oc2c(C)c(C)c(C(=O)Oc3c(C)c(C)c(C(=O)O)c(OC)c3C)c(OC)c2C)c(C)c1Oc1ccc(C[C@H](N)C(=O)O)cc1 [Compound 77, [5-[6'-[4''-(4'''-Carboxy-3'''-methoxy-2''',5''',6'''-trimethylphenoxycarbony)-3''-methoxy-2'',5'',6''-trimethylphenoxycarbony]-3'-hydroxy-2',5'-dimethylphenoxycarbony]-2,4-dimethoxy-3,6-dimethylphenyl] [4''''-(2'''''-amino-2'''''-carboxyethyl)phenyl] ether trifluoroacetate]
0.07	COc1c(C)c(OC)c(C(=O)Oc2cc(C)c(C(=O)Oc3c(C)c(C)c(C(=O)Oc4c(C)c(C)c(C(=O)O)c(OC)c4C)c(OC)c3C)c(O)c2C)c(C)c1Oc1ccc(C[C@H](N)C(=O)O)cc1 [Compound 74, [5-[4'-[4''-(4'''-Carboxy-3'''-methoxy-2''',5''',6'''-trimethylphenoxycarbony)-3''-methoxy-2'',5'',6''-trimethylphenoxycarbony]-3'-hydroxy-2',5'-dimethylphenoxycarbony]-2,4-dimethoxy-3,6-dimethylphenyl] [4''''-(2'''''-amino-2'''''-carboxyethyl)phenyl] ether trifluoroacetate]
0.05	COc1ccc(S(=O)(=O)c2ccc(OC)c(C(=O)Oc3c(C)c(C)c(C(=O)Oc4c(C)c(C)c(C(=O)O)c(OC)c4C)c(OC)c3C)c2)cc1C(=O)Oc1c(C)c(C)c(C(=O)Oc2c(C)c(C)c(C(=O)O)c(OC)c2C)c(OC)c1C [Compound 104b, Bis[3-[4'-[(4''-carboxy-3''-methoxy-2'',5'',6''-trimethyl)phenoxycarbony]-3'-methoxy-2',5',6'-trimethyl]-phenoxycarbony-4-methoxyphenyl] sulfone]
2.5	COc1ccc(Sc2ccc(OC)c(C(=O)Oc3c(C)c(C)c(C(=O)O)c(OC)c3C)c2)cc1C(=O)Oc1c(C)c(C)c(C(=O)O)c(OC)c1C [Compound 110b, Bis[3-(4'-carboxy-3'-methoxy-2',5',6'-trimethylphenoxycarbonyl)-4-methoxyphenyl] sulfide]
0.12	COc1ccc([S+]([O-])c2ccc(OC)c(C(=O)Oc3c(C)c(C)c(C(=O)Oc4c(C)c(C)c(C(=O)O)c(OC)c4C)c(OC)c3C)c2)cc1C(=O)Oc1c(C)c(C)c(C(=O)Oc2c(C)c(C)c(C(=O)O)c(OC)c2C)c(OC)c1C [Compound 104c, Bis[3-[4'-[(4''-carboxy-3''-methoxy-2'',5'',6''-trimethyl)phenoxycarbony]-3'-methoxy-2',5',6'-trimethyl]-phenoxycarbony-4-methoxyphenyl] sulfoxide]
0.95	Cc1c(O)c(Cc2c(C)c(C(=O)Oc3c(C)c(C)c(C(=O)Oc4c(C)c(C)c(C(=O)O)c(O)c4C)c(O)c3C)c(O)c(C)c2O)c(C)c(C(=O)Oc2c(C)c(C)c(C(=O)Oc3c(C)c(C)c(C(=O)O)c(O)c3C)c(O)c2C)c1O [Compound 62, Bis[5-[4'-(4''-carboxy-3''-hydroxy-2'',5'',6''-trimethylphenoxycarbonyl)-3'-hydroxy-2',5',6'-trimethylphenoxycarbonyl]-2,4-dihydroxy-3,6-dimethylphenyl] methane]
0.049	COc1ccc(Sc2ccc(OC)c(C(=O)Oc3c(C)c(C)c(C(=O)Oc4c(C)c(C)c(C(=O)O)c(OC)c4C)c(OC)c3C)c2)cc1C(=O)Oc1c(C)c(C)c(C(=O)Oc2c(C)c(C)c(C(=O)O)c(OC)c2C)c(OC)c1C [Compound 104a, Bis[3-[4'-[(4''-carboxy-3''-methoxy-2'',5'',6''-trimethyl)phenoxycarbony]-3'-methoxy-2',5',6'-trimethyl]-phenoxycarbony-4-methoxyphenyl] sulfide]
0.04	COc1c(C)c(OC(=O)c2c(C)c(C)c(OC(=O)CCC(=O)Oc3c(C)c(C)c(C(=O)Oc4c(C)c(C)c(C(=O)O)c(OC)c4C)c(OC)c3C)c(C)c2OC)c(C)c(C)c1C(=O)O [Compound 122, 1,2-Bis[4'-[4''-carboxy-3''-methoxy-2'',5'',6''-trimethylphenoxycarbonyl)-3'-methoxy-2',5',6'-trimethylphenoxycarbony] ethane]
0.33	COc1c(C)c(OC(=O)c2c(C)c(C)c(OC(=O)/C=C/C(=O)Oc3c(C)c(C)c(C(=O)Oc4c(C)c(C)c(C(=O)O)c(OC)c4C)c(OC)c3C)c(C)c2OC)c(C)c(C)c1C(=O)O [Compound 121, Trans-1,2-bis[4'-(4''-carboxy-3''-methoxy-2'',5'',6''-trimethylphenoxycarbonyl)-3^'-methoxy-2',5',6'-trimethylphenoxycarbony] ethene]
0.042	COc1ccc(Oc2ccc(OC)c(C(=O)Oc3c(C)c(C)c(C(=O)Oc4c(C)c(C)c(C(=O)O)c(OC)c4C)c(OC)c3C)c2)cc1C(=O)Oc1c(C)c(C)c(C(=O)Oc2c(C)c(C)c(C(=O)O)c(OC)c2C)c(OC)c1C [Compound 120]
2.1	COc1ccc(Sc2ccc(OC)c(C(=O)Oc3c(C)c(C)c(C(=O)Oc4c(C)c(C)c(C(=O)O)c(OC)c4C)c(OC)c3C)c2)cc1C(=O)O [Compound 108]
3.4	COc1ccc(Oc2ccc(OC)c(C(=O)Oc3c(C)c(C)c(C(=O)O)c(OC)c3C)c2)cc1C(=O)Oc1c(C)c(C)c(C(=O)O)c(OC)c1C [Compound 110a, Bis[3-[4'-carboxy-3'-methoxy-2',5',6'-trimethylphenoxycarbonyl)-4-methoxyphenyl] ether]
